Test system: pS6, IGF-IRβ, Akt, PRAS40, Raptor in Tsc2-sh neurons
Test: Western blot of PI3K/Akt/mTORC1 signaling components in Tsc2-sh neurons
Assay type: cell-based, rat
Text: Hsp90 is a molecular chaperone that protects its client proteins from degradation, and many of its substrates are oncogenic proteins (Neckers and Workman, Hsp90 molecular chaperone inhibitors: are we there yet?; Clin Cancer Res 18, 64-76 (2012)). Among these, insulin-growth factor-1 Receptor β (IGF-IRβ), Akt, and Raptor are components of the PI3K/mTOR pathway that have been identified as Hsp90 substrates in non-neuronal cells (Basso et al., Akt forms an intracellular complex with heat shock protein 90 (Hsp90) and Cdc37 and is destabilized by inhibitors of Hsp90 function; J Biol Chem 277, 39858-39866 (2002); Ohji et al., Suppression of the mTOR-raptor signaling pathway by the inhibitor of heat shock protein 90 geldanamycin; J Biochem 139, 129-135 (2006)). To test whether Hsp90 affects mTORC1 activity through regulation of IGF-IRβ, Akt, or Raptor in neurons, the expression of these potential client proteins were examined in Tsc2-knockdown neurons treated with vehicle or with a 7-point dose-response curve at a three-fold dilution of 17-AGG (assay endpoint DIV20).
To investigate whether Hsp90 could function as a chaperone of IGF-IRβ in neurons, wild-type neurons were treated with 17-AGG and then proteasomal degradation was inhibited using bortezomib (BTZ). As expected, Hsp90 inhibition led to reduced IGF-IRβ levels, and this reduction was prevented with BTZ. […] Without wishing to be bound by theory, it is likely that Hsp90 protects IGF-IRβ against proteasomal degradation. To test whether IGF-IRβ protein stability and signaling may represent a potential mechanism by which Hsp90 inhibition reduces mTORC1 activity, IGF-IRβ activation was assessed by autophosphorylation at Tyr1135/1136. Consistent with mTOR-dependent negative feedback on the RTK/Akt pathway (Zhang et al., S6K1 regulates GSK3 under conditions of mTOR-dependent feedback inhibition of Akt; Molecular cell 24, 185-197 (2006)), IGF-IRβ phosphorylation was reduced in the vehicle-treated Tsc2-sh neurons compared to controls (FIGS. 3G, J). […] (FIGS. 3G, J).
Hippocampi and cortexes from 18-day-old rat embryos (Charles River CD1) were isolated under the microscope and collected in Hank's Balanced Salt Solution containing 10 mM MgCl2, 1 mM kynurenic acid, 10 mM HEPES and penicillin/streptomycin. After 5 min dissociation at 37° C. in 30 U/ml of papain, neurons were mechanically triturated and plated in Neurobasal (NB) medium containing B27 supplement, 2 mM L-glutamine, penicillin/streptomycin and primocin (NB/B27). Biochemical analysis was performed on cortical cultures plated at 1×10^6 cells/well onto six-well plates. Immunofluorescent analysis was performed on hippocampal cultures plated at 20×10^3 cells/well onto 96-well plates. All plates were coated with 20 μg/ml poly-D-lysine (PDL).
Protein extracts were lysed in 1×SDS (22 mM Tris-HCl pH 6.8, 4% Glycerol, 0.8% SDS, 1.6% β-mercaptoethanol, bromphenol blue) sample buffer, heated to 95° C. for 5 min and stored frozen. Before being subjected to discontinuous gel electrophoresis, equal amounts of all protein lysates were verified by Coomassie gel staining. For immunoblotting, equal amounts of protein lysates were subjected to SDS-PAGE, transferred to Immobilon-P Millipore and incubated in LI-COR blocking solution at RT for 2 hrs. Primary and secondary antibodies were diluted in LI-COR blocking solution to the appropriate concentrations. LI-COR IRDye secondary antibodies were used. All images were acquired using the LI-COR Odyssey Classic imager and associated Image Studio Lite analysis software (version 5.2.5). Quantification of protein expression was performed by densitometry scans of immunoblots using LI-COR Odyssey imaging system.
Western blot quantifications were performed by protein normalization using GAPDH as loading control. Level of phosphorylated proteins was expressed as the ratio of phosphorylated/total level after GAPDH normalization. […]

[1] = Tsc2-sh neurons, 7-point dose-response, assay endpoint DIV20
[2] = Tsc2-sh neurons, 17-AGG dose of 4 μM, assay endpoint DIV20
[3] = Tsc2-sh neurons, dose curve 24 hrs between DIV19-20

With `C=CCNC1=C2C[C@@H](C)C[C@H](OC)[C@H](O)[C@@H](C)/C=C(\C)[C@H](OC(N)=O)[C@@H](OC)C=C/C=C(\C)C(=O)NC(=CC1=O)C2=O` [17-AGG, 3 S,5S,6R,7S,8E,10R,11S,12E,14E)-21-(allylamino)-6-hydroxy-5,11-dimethoxy-3,7,9,15-tetramethyl-16,20,22-trioxo-17-azabicyclo[16.3.1]docosa-8,12,14,18,21-pentaen-10-yl] carbamate] the Akt levels [1] was “no effect”, the Raptor levels [1] was “no effect” and the pS6 phosphorylation [2] was “significantly reduced”. For the same molecule, the “total IGF-IRβ protein level” value [2] was “significantly reduced”, the “phosphorylation of Akt” value [3] was “reduced” and the “phosphorylation of PRAS40” value [3] was “reduced”. For the same molecule, the “phosphorylation of IGF-IRβ receptor (Tyr1135/1136)” value (Tsc2-sh neurons, dose curve, DIV19-20) was “further reduced” and the mTORC1 activation (Tsc2 knockdown cultures at DIV13, four days of 17-AGG 5-450 nM) was “without any effect”.
